Drawing on PubChem BioAssay (NCI), this text covers GI50 and TGI for 8 compounds.

Among the test systems are SK-MEL-28 melanoma; K-562 leukemia; SN12C renal; SK-MEL-2 melanoma; UACC-62 melanoma; U251 CNS; PC-3 prostate; A549 NSCLC; HOP-92 NSCLC; IGROV1 ovarian.
Common to all, as to experiment: NCI-60 cell line screen, 48 h

Structures are written as SMILES. “And” between values parts separate entries of the source, which are not always exact repeats. Equal values may be shown once.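 Test compounds were applied to cells in 96-well plates for 48 hours at 5 doses. GI50 = concentration required for 50% inhibition of growth. At the TGI there is no net growth.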

With `O=C(Nc1cc(Nc2ncccc2-c2ncnc3nc[nH]c23)ccc1F)c1cc(C(F)(F)F)cc(C(F)(F)F)c1`, the GI50 is 0.34 µM in the assay with SK-MEL-28 melanoma; 0.4 µM in the assay on K-562 leukemia; 2.73 µM in the assay with SN12C renal; 0.355 µM with SK-MEL-2 melanoma; 0.38 µM with UACC-62 melanoma; 2.88 µM with U251 CNS. Also, the GI50 is 2.34 µM in the assay on PC-3 prostate, 3.05 µM with A549 NSCLC, 0.891 µM in the assay with HOP-92 NSCLC and 1.63 µM in the assay on IGROV1 ovarian. The TGI in the assay with SK-MEL-28 melanoma was 1.68 µM; in the assay on K-562 leukemia it was over 10 µM; with SN12C renal, over 10 µM; in the assay with SK-MEL-2 melanoma, 2.41 µM; with UACC-62 melanoma, 2.32 µM; in the assay on U251 CNS, over 10 µM. The TGI was 5.19 µM in the assay with PC-3 prostate, over 10 µM in the assay with A549 NSCLC, 3.92 µM in the assay on HOP-92 NSCLC and 7.2 µM in the assay on IGROV1 ovarian.
Turning to `CCCc1cc(=O)n2c(C(=O)Nc3ccc(Cl)cc3C)c(C(=O)Nc3ccc(F)cc3)sc2n1`, the GI50 is 8.07 µM in the assay on SK-MEL-28 melanoma; 1.08 µM in the assay with K-562 leukemia; 4.13 µM with SK-MEL-2 melanoma; 2.02 µM in the assay with UACC-62 melanoma; 1.51 µM in the assay with U251 CNS; 2.07 µM in the assay with PC-3 prostate. Moreover, the results for the GI50 in the assay on A549 NSCLC, in the assay with HOP-92 NSCLC and in the assay on IGROV1 ovarian were 2.63 µM, 0.166 µM and 9.31 µM, respectively. For the same compound, the TGI in the assay on SK-MEL-28 melanoma is 46 µM; with K-562 leukemia, 20.3 µM; in the assay with SK-MEL-2 melanoma it was 21.9 µM; with UACC-62 melanoma it was 12.1 µM; in the assay on U251 CNS it was 4.37 µM; in the assay on PC-3 prostate it was 11 µM. The TGI in the assay with A549 NSCLC amounted to 5.95 µM; with HOP-92 NSCLC, 0.989 µM; with IGROV1 ovarian, 33.6 µM.
Take `Nc1cc2c(cc1Br)[nH]c(=O)c1ccccc12`: the GI50 in the assay with SK-MEL-28 melanoma was 4.25 µM; in the assay with K-562 leukemia, 5.78 µM; in the assay on SN12C renal it was 2.68 µM; in the assay with SK-MEL-2 melanoma, 3.44 µM; with UACC-62 melanoma, 6.02 µM; in the assay with PC-3 prostate it was 4.14 µM. Also, the GI50 was 2.91 µM in the assay on A549 NSCLC, 3.81 µM in the assay on HOP-92 NSCLC and 3.61 µM in the assay with IGROV1 ovarian. Besides, the TGI with SK-MEL-28 melanoma was 15.5 µM; in the assay on K-562 leukemia, over 100 µM; in the assay on SN12C renal, 13.8 µM; in the assay on SK-MEL-2 melanoma, 11.2 µM; in the assay on UACC-62 melanoma, 20.1 µM; in the assay on PC-3 prostate, over 100 µM. For the same compound, the TGI in the assay on A549 NSCLC turned out to be 11.4 µM; with HOP-92 NSCLC, 41.8 µM; in the assay with IGROV1 ovarian, 23.1 µM.
In the case of `COc1cc2c(cc1O)CCN[C@]21CS[C@@H]2c3c(OC(C)=O)c(C)c4c(c3[C@H](COC1=O)N1[C@@H]2[C@H]2c3c(cc(C)c(OC)c3O)C[C@@H]([C@@H]1O)N2C)OCO4`, the TGI in the assay with K-562 leukemia is 7.98 µM; in the assay on SN12C renal, 3.9 µM; in the assay on SK-MEL-2 melanoma, 0.00511 µM; with UACC-62 melanoma, 0.00403 µM; in the assay with U251 CNS, 1.02 µM; in the assay with PC-3 prostate it was 0.119 µM. For the same compound, the TGI with A549 NSCLC amounted to 2.83 µM; in the assay with HOP-92 NSCLC it was 0.0518 µM; in the assay on IGROV1 ovarian, 1.96 µM. In addition, the GI50 in the assay on SK-MEL-2 melanoma was 0.0031 µM; with PC-3 prostate it was 0.00279 µM; in the assay with A549 NSCLC, 0.00319 µM; in the assay on HOP-92 NSCLC it was 0.00273 µM; with IGROV1 ovarian it was 0.00257 µM.
Take `O=C(Nc1cc(Cl)ccc1O)c1ccc(Nc2ccnc(C(F)(F)F)c2)cc1`: the GI50 was 4.6 µM with SK-MEL-28 melanoma; 2.89 µM with K-562 leukemia; 2.65 µM in the assay on SN12C renal; 2.3 µM in the assay with UACC-62 melanoma; 3.47 µM with U251 CNS; 2.72 µM in the assay with PC-3 prostate. Also, the figures for the GI50 in the assay on A549 NSCLC, in the assay with HOP-92 NSCLC and in the assay on IGROV1 ovarian were 3.97 µM, 2.24 µM and 2.34 µM, respectively. For the same compound, the TGI in the assay with SK-MEL-28 melanoma was over 100 µM; with K-562 leukemia, over 100 µM; in the assay with SN12C renal, 32 µM; in the assay with UACC-62 melanoma it was 15.5 µM; with U251 CNS, over 100 µM; with PC-3 prostate, 9.02 µM. For the same compound, the TGI with A549 NSCLC was over 100 µM; in the assay with HOP-92 NSCLC it was 6.12 µM; in the assay with IGROV1 ovarian, 8.19 µM.
With `COc1ccc(-c2ccc3c(N4CCOC[C@@H]4C)nc(N4CCOC[C@@H]4C)nc3n2)cc1CO`, the GI50 is 0.00476 µM and 0.0135 µM in the assay with SK-MEL-28 melanoma; 0.012 µM and 0.0551 µM in the assay with K-562 leukemia; 0.0053 µM and 0.0208 µM in the assay on SN12C renal; 0.00337 µM and 0.019 µM in the assay with UACC-62 melanoma; 0.00762 µM and 0.0341 µM with U251 CNS; 0.00478 µM and < 0.0109 µM with PC-3 prostate. Moreover, the GI50 was 0.0052 µM and 0.0253 µM in the assay with A549 NSCLC; 0.00134 µM and 0.0105 µM with HOP-92 NSCLC; 0.00654 µM and < 0.01 µM with IGROV1 ovarian. The TGI with SK-MEL-28 melanoma was 0.181 µM; with K-562 leukemia, over 100 µM; in the assay with SN12C renal, over 100 µM; in the assay with U251 CNS, over 54.1 µM; in the assay with PC-3 prostate, over 100 µM; in the assay with A549 NSCLC, 1.78 µM and 0.57 µM. Moreover, the TGI in the assay with IGROV1 ovarian is 0.0744 µM and 0.0607 µM.
In the case of `Cn1cc(-c2csc(-c3cn(CCCCN4CCCCC4)c4ccccc34)n2)c2cccnc21`, the GI50 is 1.7 µM in the assay on SK-MEL-28 melanoma; 1.79 µM in the assay with UACC-62 melanoma; 1.61 µM with PC-3 prostate; 1.79 µM in the assay with A549 NSCLC; 1.32 µM with HOP-92 NSCLC. For the same compound, the TGI in the assay on SK-MEL-28 melanoma came out at 3.12 µM; in the assay on UACC-62 melanoma it was 3.27 µM; in the assay on PC-3 prostate, 3.03 µM; in the assay with A549 NSCLC, 3.37 µM; in the assay on HOP-92 NSCLC it was 2.7 µM.
As for `O=C(O)c1cccc(COc2ccc([N+](=O)[O-])cc2Cl)c1`, the GI50 with SK-MEL-28 melanoma is over 100 µM; in the assay on K-562 leukemia it was 37.2 µM; in the assay on SK-MEL-2 melanoma, over 100 µM; in the assay on UACC-62 melanoma, over 100 µM; in the assay on U251 CNS it was over 100 µM; in the assay on PC-3 prostate, over 100 µM. Also, the GI50 with A549 NSCLC was over 100 µM; in the assay on HOP-92 NSCLC, 45.2 µM; in the assay on IGROV1 ovarian, 74.6 µM. Further, the TGI with SK-MEL-28 melanoma, in the assay with K-562 leukemia, with SK-MEL-2 melanoma, with UACC-62 melanoma, in the assay with U251 CNS and with PC-3 prostate was over 100 µM each time. In addition, the TGI in the assay on A549 NSCLC, with HOP-92 NSCLC and in the assay with IGROV1 ovarian was over 100 µM throughout.
